We go through two compounds from paper PMC12715762, “Discovery of VU6052254: A Novel, Potent M1 Positive Allosteric Modulator” (ACS Chemical Neuroscience, 2025).

For data set [1] the following is noted: result in words; cited from earlier work.
The target of data set [2] is Adenosine A3 (Homo sapiens, UniProt P0DMS8). The experiment in a line: Eurofins radioligand binding.
The subject of data set [3] is Rolipram. The experiment in a line: Eurofins radioligand binding. To be noted: Rat.
The target in data set [4] is Serotonin (5-HT3) (Homo sapiens, UniProt P46098). The experiment in a line: Eurofins radioligand binding.
The subject of data set [5] is mouse native tissue layer V medial prefrontal cortex (mPFC). The experiment in a line: electrophysiology (fEPSP, LTD) in layer V medial prefrontal cortex. To be noted: 10 μM. An excerpt: Based on our previous experience, ,− , PAM 7 is expected to display robust pro-cognitive efficacy and maintain activity dependence of prefrontal cortical (PFC) function.
The target in data set [6] is CYP 2D6 (Homo sapiens, UniProt P10635). The experiment in a line: CYP450 inhibition. The data set is classed as in vitro ADME.
In data set [7] the target is Histamine H1 (Homo sapiens, UniProt P35367). The experiment in a line: Eurofins radioligand binding.
In data set [8] the test system is Glutamate, NMDA, Glycine. The experiment in a line: Eurofins radioligand binding. To be noted: Rat.
Data set [9] deals with Tachykinin NK1 (Homo sapiens, UniProt P25103). Put plainly: Eurofins radioligand binding.
Data set [10] addresses Bradykinin B1 (Homo sapiens, UniProt P46663). The experiment in a line: Eurofins radioligand binding.
Data set [11] concerns Glutamate, Kainate. Put plainly: Eurofins radioligand binding. As to conditions: Rat.
Data set [12] deals with Transporter, Dopamine (DAT) (Homo sapiens, UniProt Q01959). Put plainly: Eurofins radioligand binding.
The target of data set [13] is CYP 3A4 (Homo sapiens, UniProt P08684). The experiment in a line: CYP450 inhibition. Format: in vitro ADME.
In data set [14] the test system is mice. The experiment in a line: modified Irwin neurological test battery. Format: in vivo, mouse. As to conditions: result in words. On the procedure: To assess peripheral cholinergic toxicity, a modified Irwin neurological battery was performed to score autonomic or somatosensory side effects (Figure ).
Data set [15] has as its target Adrenergic β1 (Homo sapiens, UniProt P08588). The experiment in a line: Eurofins radioligand binding.
Data set [16] deals with CYP 2B6 (Homo sapiens, UniProt P20813). Put plainly: CYP450 inhibition. Format: in vitro ADME.
Data set [17] deals with CYP 2C9 (Homo sapiens, UniProt P11712). The experiment in a line: CYP450 inhibition. The data set is classed as in vitro ADME.
The target of data set [18] is Adenosine A2A (Homo sapiens, UniProt P29274). The experiment in a line: Eurofins radioligand binding.
Data set [19] relates to 3A4. The experiment in a line: CYP450 induction in human hepatocytes (three donors). Format: cell-based.
In data set [20] the target is T1, Adrenergic α2A (Homo sapiens, UniProt P08913).
T1 construct: purchased Eurofins (contract screen, Study TW04-0011004)
The experiment in a line: Eurofins radioligand binding.

A short description of data set [21]: human PK and dose predictions (geometric mean of six methods). On the procedure: The predicted dose for 7 ranged from 32 to 84 mg QD. Based on this analysis, PAM 7 was advanced to safety and ADME studies.
In data set [22] the target is Dopamine D1 (Homo sapiens, UniProt P21728). The experiment in a line: Eurofins radioligand binding.
For data set [23], the target named is CYP 2C19 (Homo sapiens, UniProt P33261). The experiment in a line: CYP450 inhibition. Format: in vitro ADME.
In data set [24] the target is Adrenergic α1D (Homo sapiens, UniProt P25100). Put plainly: Eurofins radioligand binding.
Data set [25] deals with Opiate μ (OP3, MOP) (Homo sapiens, UniProt P35372). Put plainly: Eurofins radioligand binding.
Data set [26] has as its target Neuropeptide Y Y1 (Homo sapiens, UniProt P25929). The experiment in a line: Eurofins radioligand binding.
In data set [27] the target is Serotonin (5-HT1A) (Homo sapiens, UniProt P08908). The experiment in a line: Eurofins radioligand binding.
The target in data set [28] is CYP 2C8 (Homo sapiens, UniProt P10632). The experiment in a line: CYP450 inhibition. The data set is classed as in vitro ADME.
The nature of data set [29]: plasma protein binding, equilibrium dialysis (human). Format: in vitro ADME. As to conditions: pH 7.4, read-out: fu,plasma. The protocol: Plasma protein binding and Brain homogenate binding: Determination of fraction unbound (f u) in plasma was conducted in vitro via equilibrium dialysis using HTDialysis (HTD) membrane plates. The top half of the plate was filled with 100 uL of Dubelco’s Phosphate Buffered Saline, pH 7.4 (DPBS). Compounds were diluted into plasma from each species (5 µM final concentration), which was aliquoted in triplicate to the ‘bottom half’ of the prepared HTD plate wells. The HTD plate was sealed and incubated for 6 hours at 37 °C. Following incubation, each well (both top and bottom halves) were transferred (20 µL) to the corresponding wells of a 96-shallow-well (V-bottom) plate. […]
The unbound fraction (f u) was calculated following the equation below, and mean values for each species were calculated from 3 replicates.
A similar approach was used to determine the degree of brain homogenate binding, which employed the same methodology and procedure with the following modifications: 1) a final compound concentration of 1 μM was used, 2) naïve rat brains were homogenized in DPBS (1:3 composition of brain: DPBS, w/w) using a Mini-Bead Beater™ machine in order to obtain brain homogenate, which was then treated in the same manner as the plasma samples in the previously described plasma protein binding assay. Fraction unbound for both plasma and brain samples was determined using Equation 4. […]
For orientation: Equilibrium dialysis compares concentrations on both sides of a semipermeable membrane.

Usually inhibition stands for the change of the read-out against control, counted positive when it falls. As usually defined, the % Inhibition is the relative decrease from the control value, in per cent. The term IC50 denotes the midpoint of a concentration-inhibition curve. Lower therefore signals greater potency in that assay.

Each structure is given as a SMILES string.

T1 sequence (P08913 whole entry): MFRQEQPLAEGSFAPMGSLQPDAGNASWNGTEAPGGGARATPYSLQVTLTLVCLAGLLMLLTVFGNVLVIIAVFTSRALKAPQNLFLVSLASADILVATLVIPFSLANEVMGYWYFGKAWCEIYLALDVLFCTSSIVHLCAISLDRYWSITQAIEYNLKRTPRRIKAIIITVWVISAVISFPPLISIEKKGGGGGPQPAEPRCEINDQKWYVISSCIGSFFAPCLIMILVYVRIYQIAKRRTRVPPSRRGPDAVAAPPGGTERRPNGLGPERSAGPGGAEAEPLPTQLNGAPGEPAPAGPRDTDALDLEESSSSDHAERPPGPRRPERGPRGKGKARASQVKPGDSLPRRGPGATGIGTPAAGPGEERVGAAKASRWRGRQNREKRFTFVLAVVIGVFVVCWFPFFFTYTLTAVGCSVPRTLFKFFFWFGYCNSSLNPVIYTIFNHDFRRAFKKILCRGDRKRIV
Sequence of Opiate μ (OP3, MOP) (P35372 whole entry): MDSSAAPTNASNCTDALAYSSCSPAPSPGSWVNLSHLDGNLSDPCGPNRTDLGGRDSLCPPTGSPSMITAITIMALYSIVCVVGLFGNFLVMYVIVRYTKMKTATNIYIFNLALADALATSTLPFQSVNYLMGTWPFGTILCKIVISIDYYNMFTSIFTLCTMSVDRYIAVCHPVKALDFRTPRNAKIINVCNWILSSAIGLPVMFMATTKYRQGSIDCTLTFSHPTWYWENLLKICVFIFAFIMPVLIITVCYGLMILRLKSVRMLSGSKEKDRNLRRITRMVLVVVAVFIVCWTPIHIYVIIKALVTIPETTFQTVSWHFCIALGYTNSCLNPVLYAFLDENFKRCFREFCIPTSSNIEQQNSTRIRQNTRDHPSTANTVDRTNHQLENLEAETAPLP
Sequence of Serotonin (5-HT3) (P46098 24-478): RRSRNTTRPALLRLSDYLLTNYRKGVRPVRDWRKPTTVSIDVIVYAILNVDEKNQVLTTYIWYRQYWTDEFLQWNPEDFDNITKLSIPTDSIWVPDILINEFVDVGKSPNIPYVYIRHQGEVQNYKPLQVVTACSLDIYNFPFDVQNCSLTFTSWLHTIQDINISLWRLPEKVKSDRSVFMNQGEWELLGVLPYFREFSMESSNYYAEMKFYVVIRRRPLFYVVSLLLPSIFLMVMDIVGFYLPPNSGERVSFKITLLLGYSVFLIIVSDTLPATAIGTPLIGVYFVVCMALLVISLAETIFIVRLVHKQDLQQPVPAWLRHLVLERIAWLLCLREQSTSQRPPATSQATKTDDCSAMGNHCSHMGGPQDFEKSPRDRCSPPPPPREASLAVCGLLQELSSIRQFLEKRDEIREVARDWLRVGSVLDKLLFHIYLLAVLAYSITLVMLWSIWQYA
Sequence of CYP 2D6 (P10635 whole entry): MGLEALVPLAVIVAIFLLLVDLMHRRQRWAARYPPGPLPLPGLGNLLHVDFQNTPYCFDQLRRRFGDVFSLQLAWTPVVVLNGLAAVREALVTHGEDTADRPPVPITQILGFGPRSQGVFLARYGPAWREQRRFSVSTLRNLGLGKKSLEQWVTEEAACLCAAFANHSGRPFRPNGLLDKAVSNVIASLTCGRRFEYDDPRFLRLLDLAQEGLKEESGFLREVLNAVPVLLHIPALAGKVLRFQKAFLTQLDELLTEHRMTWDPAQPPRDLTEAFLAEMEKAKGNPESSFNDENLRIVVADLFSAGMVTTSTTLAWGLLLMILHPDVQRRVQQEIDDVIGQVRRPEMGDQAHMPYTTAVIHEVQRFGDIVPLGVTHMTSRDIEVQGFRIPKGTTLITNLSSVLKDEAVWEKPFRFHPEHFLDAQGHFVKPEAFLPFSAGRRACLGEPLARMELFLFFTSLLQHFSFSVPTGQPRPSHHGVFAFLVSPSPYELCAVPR
Sequence of Adrenergic β1 (P08588 whole entry): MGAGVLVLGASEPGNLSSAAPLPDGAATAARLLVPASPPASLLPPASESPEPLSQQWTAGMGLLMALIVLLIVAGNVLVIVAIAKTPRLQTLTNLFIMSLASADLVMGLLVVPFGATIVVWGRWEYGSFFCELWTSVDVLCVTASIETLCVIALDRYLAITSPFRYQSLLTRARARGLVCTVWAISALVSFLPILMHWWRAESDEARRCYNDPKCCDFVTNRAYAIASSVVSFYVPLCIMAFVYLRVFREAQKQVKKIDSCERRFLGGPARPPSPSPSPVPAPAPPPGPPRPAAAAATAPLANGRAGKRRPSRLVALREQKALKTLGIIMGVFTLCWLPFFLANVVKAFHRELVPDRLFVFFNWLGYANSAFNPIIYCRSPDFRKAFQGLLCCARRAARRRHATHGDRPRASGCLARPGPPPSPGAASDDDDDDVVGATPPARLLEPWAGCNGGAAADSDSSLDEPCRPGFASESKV
Sequence of CYP 2C19 (P33261 whole entry): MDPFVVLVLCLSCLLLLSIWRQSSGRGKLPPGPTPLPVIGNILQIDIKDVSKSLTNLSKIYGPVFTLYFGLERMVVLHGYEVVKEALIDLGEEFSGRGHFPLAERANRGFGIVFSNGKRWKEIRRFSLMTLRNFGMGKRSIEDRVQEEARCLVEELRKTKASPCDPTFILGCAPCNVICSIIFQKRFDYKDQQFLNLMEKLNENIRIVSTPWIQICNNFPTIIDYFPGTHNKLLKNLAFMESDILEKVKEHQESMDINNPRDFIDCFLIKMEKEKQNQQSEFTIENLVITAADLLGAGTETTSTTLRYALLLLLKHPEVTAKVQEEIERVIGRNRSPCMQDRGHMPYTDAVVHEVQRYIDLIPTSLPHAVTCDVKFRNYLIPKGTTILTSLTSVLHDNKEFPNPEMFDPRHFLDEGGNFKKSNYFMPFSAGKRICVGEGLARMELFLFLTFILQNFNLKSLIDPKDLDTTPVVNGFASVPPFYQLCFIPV
Sequence of Adrenergic α1D (P25100 whole entry): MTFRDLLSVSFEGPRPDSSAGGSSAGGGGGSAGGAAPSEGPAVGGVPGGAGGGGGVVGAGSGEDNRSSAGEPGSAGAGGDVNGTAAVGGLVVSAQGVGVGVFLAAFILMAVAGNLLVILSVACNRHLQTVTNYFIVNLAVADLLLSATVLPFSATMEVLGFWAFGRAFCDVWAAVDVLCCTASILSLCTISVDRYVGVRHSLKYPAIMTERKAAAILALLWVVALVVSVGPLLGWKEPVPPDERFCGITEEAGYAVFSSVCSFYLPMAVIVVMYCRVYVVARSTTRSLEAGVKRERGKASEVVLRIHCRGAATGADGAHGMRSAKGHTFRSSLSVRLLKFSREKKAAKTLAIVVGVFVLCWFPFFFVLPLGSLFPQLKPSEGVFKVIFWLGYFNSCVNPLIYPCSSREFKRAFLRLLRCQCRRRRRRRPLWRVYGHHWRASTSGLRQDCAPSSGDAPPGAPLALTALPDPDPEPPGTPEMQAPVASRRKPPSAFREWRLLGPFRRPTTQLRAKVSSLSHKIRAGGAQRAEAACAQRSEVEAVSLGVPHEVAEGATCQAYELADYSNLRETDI
Sequence of Neuropeptide Y Y1 (P25929 whole entry): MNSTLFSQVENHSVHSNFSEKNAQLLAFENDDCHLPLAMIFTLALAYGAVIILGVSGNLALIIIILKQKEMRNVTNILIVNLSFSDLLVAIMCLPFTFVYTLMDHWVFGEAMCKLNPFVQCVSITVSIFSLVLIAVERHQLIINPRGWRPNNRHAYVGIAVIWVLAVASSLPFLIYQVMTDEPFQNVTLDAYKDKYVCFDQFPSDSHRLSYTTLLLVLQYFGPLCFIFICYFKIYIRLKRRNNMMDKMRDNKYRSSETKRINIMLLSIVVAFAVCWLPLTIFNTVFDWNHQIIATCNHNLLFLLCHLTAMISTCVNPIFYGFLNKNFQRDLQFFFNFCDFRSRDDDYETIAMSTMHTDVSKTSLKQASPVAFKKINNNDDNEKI
Sequence of CYP 2C9 (P11712 whole entry): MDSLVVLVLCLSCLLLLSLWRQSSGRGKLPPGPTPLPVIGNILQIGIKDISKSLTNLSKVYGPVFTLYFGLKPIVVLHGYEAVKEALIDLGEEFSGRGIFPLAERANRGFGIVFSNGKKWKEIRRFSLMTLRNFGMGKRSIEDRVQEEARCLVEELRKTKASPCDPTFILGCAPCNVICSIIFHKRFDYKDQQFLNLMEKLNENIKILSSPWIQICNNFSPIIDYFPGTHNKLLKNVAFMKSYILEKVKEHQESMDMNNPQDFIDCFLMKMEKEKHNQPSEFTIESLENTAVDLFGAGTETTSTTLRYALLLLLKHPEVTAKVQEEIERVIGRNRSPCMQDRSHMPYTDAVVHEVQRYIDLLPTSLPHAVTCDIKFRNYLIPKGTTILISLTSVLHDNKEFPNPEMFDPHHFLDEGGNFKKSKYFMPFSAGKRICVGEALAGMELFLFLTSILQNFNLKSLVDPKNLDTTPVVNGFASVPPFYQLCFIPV
Sequence of Tachykinin NK1 (P25103 whole entry): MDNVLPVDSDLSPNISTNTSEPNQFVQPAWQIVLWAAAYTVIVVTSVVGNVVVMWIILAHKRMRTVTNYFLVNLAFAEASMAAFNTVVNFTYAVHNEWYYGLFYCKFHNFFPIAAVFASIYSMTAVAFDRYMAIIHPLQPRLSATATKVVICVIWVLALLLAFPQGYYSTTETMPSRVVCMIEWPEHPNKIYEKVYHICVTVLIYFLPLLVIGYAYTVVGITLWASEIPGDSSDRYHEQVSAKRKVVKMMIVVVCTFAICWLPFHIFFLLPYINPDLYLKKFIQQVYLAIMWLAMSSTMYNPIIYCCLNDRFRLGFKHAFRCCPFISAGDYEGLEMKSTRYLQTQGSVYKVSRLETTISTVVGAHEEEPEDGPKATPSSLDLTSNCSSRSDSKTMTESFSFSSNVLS
Sequence of Adenosine A3 (P0DMS8 whole entry): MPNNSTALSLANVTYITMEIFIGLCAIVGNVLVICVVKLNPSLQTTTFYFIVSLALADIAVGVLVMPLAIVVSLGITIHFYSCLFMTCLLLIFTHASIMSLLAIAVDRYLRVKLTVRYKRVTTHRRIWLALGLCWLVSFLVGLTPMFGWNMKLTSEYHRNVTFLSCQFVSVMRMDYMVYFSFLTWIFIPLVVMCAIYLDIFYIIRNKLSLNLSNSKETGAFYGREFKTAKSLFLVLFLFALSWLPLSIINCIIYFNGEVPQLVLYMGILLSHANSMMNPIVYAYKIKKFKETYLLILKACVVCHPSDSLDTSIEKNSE

On to `Cn1cc2c(-c3cc(F)c(CN4Cc5ncccc5C4=O)c(F)c3)cccc2n1` [compound 1, reference compound], for which the “cholinergic toxicity in Phase I SAD trial” value in data set [1] is “without any observed cholinergic toxicity”.

`Cn1cc2c(-c3cc(F)c(CN4Cc5ncccc5C4=O)c(F)c3)ccc(C(C)(C)O)c2n1` [compound 7]: the inhibition at 10 µM is 8% in data set [2]; -14% in data set [4]; 4% in data set [7]; 4% in [9]; 0% in data set [10]; 7% in data set [12]. The inhibition at 10 µM in [15] stood at 5%; in data set [18], 3%; in [20] (Adrenergic α2A, Human) it was 75%; in [22], 6%; in [24] it was 11%; in data set [25] it was 2%. Also, the figures for the inhibition at 10 µM in [26] and in data set [27] were -10% and 12%, respectively. The “% Inhibition at 10 µM” value in [3] is recorded as 61%; in data set [8], -9%; in [11], -2%. The compound further displayed a PPR in [5] of 112%. Further, the “field excitatory postsynaptic potentials (fEPSPs), % baseline” value in data set [5] came to 86 % baseline. The IC50 in [6] was greater than 30 µM; in data set [13] it was greater than 30 µM; in data set [16] it was greater than 30 µM; in data set [17], greater than 30 µM; in [20], 3.2 µM; in data set [23] it was greater than 30 µM. In [28], this compound came in with an IC50 greater than 30 µM. Also, the “adverse effects / SLUDGE in modified Irwin battery” value is reported as “minimal adverse effects or SLUDGE were noted” in data set [14] (56.6 mg/kg IP, 6 h time course); “minimal adverse cholinergic events (SLUDGE) were noted” in data set [14] (56.6 mg/kg IP, 6 h time course, listed as VU6052254); “more pronounced adverse effects seen” in data set [14] (100 mg/kg IP); “adverse cholinergic events (SLUDGE) were noted” in data set [14] (100 mg/kg IP, listed as VU6052254). Besides, the 3A4 induction in data set [19] (10 μM, human hepatocytes from three donors) was 7.6%; in data set [19] (30 μM, mRNA as the reporter), 30.5%. The predicted human dose in data set [21] (QD) is 32 to 84 mg. Also, in [21] (geometric mean of six methods), the “predicted human CLp” value is reported as 2.6 mL/min/kg. Also, the “predicted human Vss” value in data set [21] (geometric mean of six methods) is given as 1.16 L/kg. Besides, the “predicted human oral bioavailability” value in [21] (geometric mean of six methods) is given as 79%. Besides, the “predicted human t1/2” value in data set [21] (geometric mean of six methods) was 5.1 h. In addition, the fraction unbound at 6 h, 5 µM in data set [29] is 0.037.
